The values that follow come from publication PMC12406204 (Journal of Medicinal Chemistry, 2025).

Common to all, as to format: cell-based
The test system of data set [1] is mouse primary neurons. Description: Viability of primary neuronal cultures, basal conditions (trypan blue). The following applies: 100 nM, 24 h. As to the method:
A mouse primary cell experiment was performed to examine the neuroprotective effects of CB2R agonists selected for in-depth study (16i, 16j, 18e, 18f, 18o, and 18p). First, to exclude any intrinsic toxicity of the selected candidates, their potential effects on primary cell cultures were assessed. […] This finding is particularly noteworthy, and not self-evident, given the significant neurotoxicity observed during our earlier study with structurally related, classical abused [CB1R/CB2R promiscuous] synthetic cannabinoids (SCRAs). For comparative purposes, Figure A also depicts cell viability data obtained for some abused SCRAs (Figure A, gray bars) under identical conditions.
To prepare primary neurons, brains from fetuses of pregnant CD1 mice were removed (gestational age: 19 days). Neurons were isolated as described in Hradsky et al. Briefly, after removal of the meninges, samples were dissected and digested with 0.25% trypsin (20 min at 37 °C). The effect of trypsin was stopped by adding an equal volume of culture medium (supplemented DMEM). A single-cell suspension was obtained by repeated pipetting followed by passage through a 100 μm-pore mesh. Pelleted (7 min, 200g) cells were resuspended in 2 mL of supplemented DMEM and seeded at a density of 3.5 × 10^5 cells/mL in 6-well plates. After 24 h, the medium was replaced by neurobasal medium supplemented with 2 mM L-glutamine, 100 U/mL penicillin/streptomycin and 2% (v/v) B27 medium (GIBCO, Waltham, MA, USA). Primary neurons were assayed after 14 days in culture. Using NeuN as a marker, the percentage of neurons in the culture was >90%.
Primary cultures of striatal neurons were treated for 24 h with selected SCRAs (100 nM). Afterward, cells were scrapped from the plate and resuspended in neurobasal medium supplemented with 2 mM L-glutamine, 100 U/mL penicillin/streptomycin and 2% (v/v) B27 (GIBCO). Trypan blue staining was performed mixing 1 part of 0.4% trypan blue and 1 part of cell suspension in a plastic tube. After ∼3 min of incubation at room temperature, 10 μL of the mixture were sampled in a Neubauer chamber and counted with a Countess II FL (Life Technologies, California, CA, USA). The unstained (viable) and stained (nonviable) cells were counted separately, and the percentage of viability was calculated as total number of viable cells/total number of cells × 100.

In data set [2] the test system is human monocytes and macrophages (THP-1 cells). Description: Cytokine production in THP-1 monocytes and macrophages (ELISA/qRT-PCR). The following applies: 100 nM; for cytokine modulation profile (reduction of pro-inflammatory, increase of anti-inflammatory cytokines): monocytes and macrophages; for production of pro-inflammatory cytokines (TNF-α, IFN-γ, IL-1β, IL-6): unstimulated monocytes and macrophages, 24 h. As to the method:
Six representative CB2R agonists (16i, 16j, 18e, 18f, 18o, and 18p) were evaluated for their ability to modulate the production of key pro- (e.g., TNF-α, IFN-γ, IL-1β, IL-6) and anti-inflammatory (e.g., IL-4, IL-10) cytokines in human monocytes and macrophages, where CB2R is abundantly expressed. The experiments were performed both in basal and LPS-activated states and would allow to gain insight into how these compounds affect circulating leukocytes (monocytes) and tissue-resident cells (macrophages). To mimic an inflammatory environment, both cell types were also treated with LPS, enabling an assessment of the anti-inflammatory potential of the compounds in both resting and activated states. Alongside the selected ligands, the study included HU308, a well-established CB2R-selective agonist known for its anti-inflammatory properties, and SR144528, a CB2R-selective antagonist. SR144528 was used alone and in combination with the test compounds to confirm that the observed effects were specifically mediated through CB2R activation.
8 Cytokines levels in human monocytes (A, B) and macrophages (C, D) treated with CB2R ligands. THP-1 cells either untreated (A-B) or treated (C, D) with 0.01 μM PMA for 48 h to differentiate them into macrophages, were incubated for additional 24 h in the absence (A, C) or presence of 10 μg/mL LPS (B, D), without (Ctrl) or with the CB2R reference agonist HU308, the reference antagonist SR144528 and the CB2R ligands 16i, 16j, 18e, 18f, 18o, 18p at 100 nM. All the compounds were tested alone (solid bars) and in the presence of the CB2R antagonist SR144528 (striped bars). Cytokine levels were measured by ELISA coupled with qRT-PCR. Data are means ± SD (n = 3). Two-way ANOVA followed by Tukey’s posthoc test was applied. *p < 0.05; **p < 0.01; ***p < 0.001; ****p < 0.0001; * indicates vs Ctrl.
The amount of cytokines was measured in 5 μL of supernatants, derived from 1 × 10^4 cells, using the ProQuantum immunoassays kits for TNF-α, IFN-γ, IL-1β, IL-6, IL-10, and IL-4 [all from ThermoFisher Scientific (Waltham, MA)] according to the manufacturer’s instructions. The results were expressed as pg/mL based on the titration curved of each kits.
A general note: An ELISA detects its analyte on a solid surface through an enzyme-linked reagent.

Data set [3] can be described thus: Cytotoxicity on THP1 monocytes and macrophages. The following applies: human, 100 nM, basal and LPS-stimulated conditions, read-out: cell viability (cytotoxicity). The text has this:
These findings collectively highlight the anti-inflammatory properties of the selected CB2R agonists. […] The cytokine modulation profiles observed (Figure ) support the hypothesis that these ligands promote a shift toward an anti-inflammatory immune response, reducing the detrimental effects of chronic inflammation. This makes them promising candidates for the development of new therapies addressing severe inflammatory conditions, such as systemic infections, sepsis, neuroinflammation, and certain types of cancer or scenarios where conventional anti-inflammatory treatments are insufficient. Moreover, the selective targeting of CB2R without activating CB1R ensures a favorable safety profile, minimizing the risk of psychoactive side effects, and positioning these ligands as promising candidates for neurodegenerative and oncological therapies. To ensure the safety and viability of our tested compounds, we evaluated their cytotoxic effects on monocytes and macrophages under the same conditions as those used for assessing anti-inflammatory activity (Figure ). Each compound was tested at a concentration of 100 nM.
Supplementary Figure S5. Cytotoxicity assessment of lead compounds (16i, 16j, 18e, 18f, 18o, and 18p) on THP1 monocytes and macrophages (n = 3). Cells were treated with each compound at 100 nM under both basal and LPS - stimulated conditions. The viability was compared to controls, including HU308 and SR144528. […]
cytotoxic effects, with cell viability remaining close to 100% across all conditions. Error bars represent standard deviation.
(1 picture or pasted object on this page, not shown here)

Data set [4] has as its target CB2R (Homo sapiens, UniProt P34972). In words: CB2R β-arrestin recruitment. Also on record: expressed in transfected cells; host or cells: HEK-293T, transient transfection (PEI). The following applies: for Emax: normalized to CP 55,940. The text has this: Initially we tested their ability to modify CB2R-mediated cAMP accumulation, providing insights into their functional behavior as either agonists or antagonists (Table ). Moreover, the signaling profiles of selected ligands were investigated through their impact on β-arrestin recruitment and Mitogen-Activated Protein Kinase (MAPK) phosphorylation pathway, enabling a more comprehensive evaluation of their intracellular signaling profiles (Table ).
JWH-133, a well-known nonbiased (balanced) agonist, was employed as the reference for comparing the signaling profiles of the tested compounds. An operational model analysis was applied to quantify the functional bias of each CB2R-selective agonist. This involved calculating the bias factor by comparing the signaling pathways: β-arrestin versus cAMP, MAPK versus cAMP, and β-arrestin versus MAPK.
Background: Arrestin recruitment assays detect the binding of arrestin to an activated receptor.

Sequence of CB2R (P34972 whole entry): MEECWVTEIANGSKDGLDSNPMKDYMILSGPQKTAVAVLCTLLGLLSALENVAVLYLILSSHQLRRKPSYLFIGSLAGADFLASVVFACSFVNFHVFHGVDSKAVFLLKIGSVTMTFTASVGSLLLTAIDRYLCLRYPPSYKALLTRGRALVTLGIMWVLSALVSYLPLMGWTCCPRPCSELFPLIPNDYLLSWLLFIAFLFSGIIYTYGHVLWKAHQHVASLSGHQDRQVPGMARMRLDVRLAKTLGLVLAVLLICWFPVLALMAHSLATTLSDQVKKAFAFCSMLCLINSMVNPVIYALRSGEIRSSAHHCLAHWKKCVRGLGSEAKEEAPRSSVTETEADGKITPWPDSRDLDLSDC

Regarding `NC(=O)[C@@H]1CCCCN1C(=O)c1nn(Cc2ccc(F)cc2)c2ccccc12` [18o], the primary cell survival result in data set [1] is reported as “did not affect primary cell survival”. In addition, in data set [2], the “cytokine modulation profile (reduction of pro-inflammatory, increase of anti-inflammatory cytokines)” value is reported as “significant reduction” and the “production of pro-inflammatory cytokines (TNF-α, IFN-γ, IL-1β, IL-6)” value (“production of pro-inflammatory cytokines” for short) is given as “significantly reduced”. Also, the viability at 0.1 µM in data set [3] is approximately 100%. In data set [4], this molecule showed an EC50 of 60.9 ± 2.5 nM and an Emax of 148%.
Turning to `NC(=O)[C@H]1CCCCN1C(=O)c1nn(Cc2ccc(F)cc2)c2ccccc12` [18p], the primary cell survival result in data set [1] is reported as “did not affect primary cell survival”. Further, in data set [2], the “cytokine modulation profile (reduction of pro-inflammatory, increase of anti-inflammatory cytokines)” value is reported as “significant reduction” and the “production of pro-inflammatory cytokines” value was “significantly reduced”. The viability at 0.1 µM in data set [3] is approximately 100%. In data set [4], this molecule showed an EC50 of 326 ± 4 nM and an Emax of 77%.
Take `NC(=O)[C@H]1CCCCN1C(=O)c1cn(CC2CCCCC2)c2ccccc12` [18f]: the primary cell survival entry in data set [1] is “did not affect primary cell survival”. Besides, in data set [2], the “cytokine modulation profile (reduction of pro-inflammatory, increase of anti-inflammatory cytokines)” value is listed as “limited efficacy” and the “production of pro-inflammatory cytokines” value was “significantly reduced”. The viability at 0.1 µM in data set [3] was approximately 100%. In data set [4], this molecule gave an EC50 of 0.08 ± 0.01 nM and an Emax of 88%.
On to `CCCCCn1nc(C(=O)N2CCCC[C@@H]2C(=O)OC)c2ccccc21` [16j], for which, in data set [1], the primary cell survival entry is reported as “did not affect primary cell survival”. In data set [2], the “cytokine modulation profile (reduction of pro-inflammatory, increase of anti-inflammatory cytokines)” value is given as “significant reduction” and the “production of pro-inflammatory cytokines” value is “significantly reduced”. In addition, the viability at 0.1 µM in data set [3] was approximately 100%. In data set [4], the EC50 was 0.28 ± 0.02 nM and the Emax is 65%.
Take `NC(=O)[C@@H]1CCCCN1C(=O)c1cn(CC2CCCCC2)c2ccccc12` [18e]: the primary cell survival result in data set [1] is recorded as “did not affect primary cell survival”. For the same molecule, in data set [2], the “cytokine modulation profile (reduction of pro-inflammatory, increase of anti-inflammatory cytokines)” value is reported as “limited efficacy” and the “production of pro-inflammatory cytokines” value is given as “significantly reduced”. Besides, in data set [3], the viability at 0.1 µM was approximately 100%. In data set [4], the EC50 is 0.4 ± 0.08 nM and the Emax is 120%.
With `CCCCCn1nc(C(=O)N2CCCC[C@H]2C(=O)OC)c2ccccc21` [16i], the primary cell survival result in data set [1] is reported as “did not affect primary cell survival”. Further, in data set [2], the “cytokine modulation profile (reduction of pro-inflammatory, increase of anti-inflammatory cytokines)” value was “significant reduction” and the “production of pro-inflammatory cytokines” value was “significantly reduced”. Also, the viability at 0.1 µM in data set [3] was approximately 100%. Also, in data set [4], a half-maximal effect (EC50) was put at 1.09 ± 0.01 nM and the Emax is 48%.

The viability is a per cent measure of how many cells are alive, often set against a control. The EC50 is the concentration needed to bring the measured effect to its halfway point. What is called Emax is the size of the effect at its maximum, as opposed to the concentration needed.
